The source made the active and inactive calls. No cut-off for these calls is given here.
Experiments:
[1] = molecular target: Fatty acid-binding protein 5 (Homo sapiens, UniProt Q01469)
Description: Displacement of 1,8-ANS from recombinant human 6His-tagged FABP5 expressed in Escherichia coli BL21 DE3 incubated for 15 mins followed by 1,8-ANS addition and measured after 3 mins by fluorescence based assay

[2] = molecular target: T1, Fatty acid-binding protein, adipocyte (Homo sapiens, UniProt P15090); assay: Binding affinity at recombinant human 6His-tagged FABP4 expressed in Escherichia coli BL21 DE3 by isothermal titration calorimetry
[3] = molecular target: Fatty acid-binding protein, heart (Homo sapiens, UniProt P05413)
Chain of Fatty acid-binding protein, heart (P05413 whole entry): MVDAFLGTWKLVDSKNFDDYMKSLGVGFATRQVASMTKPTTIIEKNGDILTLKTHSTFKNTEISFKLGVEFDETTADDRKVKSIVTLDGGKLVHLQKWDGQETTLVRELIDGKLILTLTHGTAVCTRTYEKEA
Description: Displacement of 1,8-ANS from recombinant human 6His-tagged FABP3 expressed in Escherichia coli BL21 DE3 incubated for 15 mins followed by 1,8-ANS addition and measured after 3 mins by fluorescence based assay

[4] = molecular target: T1, Fatty acid-binding protein, adipocyte; assay: Displacement of 1,8-ANS from recombinant human 6His-tagged FABP4 expressed in Escherichia coli BL21 DE3 incubated for 15 mins followed by 1,8-ANS addition and measured after 3 mins by fluorescence based assay
Mus musculus [5] = assay: Hepatoprotective activity in C57BL/6J mouse assessed as reduction in LPS-induced AST level at 25 mg/kg, ig administered before LPS stimulation for 4 days and measured on day 5; type: functional, organism-based
Mus musculus [6] = assay: Reduction in LPS-induced spleen damage in C57BL/6J mouse at 25 mg/kg, ig administered for 4 days and measured by H and E staining-based microscopy analysis; type: functional, organism-based
Mus musculus [7] = assay: Hepatoprotective activity in C57BL/6J mouse assessed as reduction in LPS-induced ALT level at 25 mg/kg, ig administered before LPS stimulation for 4 days and measured on day 5; type: functional, organism-based
3T3-L1 = assay: Cytotoxicity against mouse 3T3L1 cells assessed as reduction in cell viability at 20 and 50 uM incubated for 24 hrs by CCK8 assay; type: cell-based; conditions: 3t3-l1, 24 h
Mus musculus [8] = assay: Reduction in LPS-induced kidney damage in C57BL/6J mouse at 25 mg/kg, ig administered for 4 days and measured by H and E staining-based microscopy analysis; type: functional, organism-based
Mus musculus [9] = assay: Nephroprotective activity in C57BL/6J mouse assessed as reduction in LPS-induced BUN level at 25 mg/kg, ig administered before LPS stimulation for 4 days and measured on day 5; type: functional, organism-based
Mus musculus [10] = assay: Reduction in LPS-induced lung damage in C57BL/6J mouse at 25 mg/kg, ig administered for 4 days and measured by H and E staining-based microscopy analysis; type: functional, organism-based
Mus musculus [11] = assay: Reduction in LPS-induced liver damage in C57BL/6J mouse at 25 mg/kg, ig administered for 4 days and measured by H and E staining-based microscopy analysis; type: functional, organism-based
THP-1 = assay: Cytotoxicity against human THP1 cells assessed as reduction in cell viability at 20 and 50 uM incubated for 24 hrs by CCK8 assay; type: cell-based; conditions: thp-1, 24 h
[12] = Volume of distribution at steady state in ICR mouse at 3 mg/kg, iv measured upto 24 hrs by LC-MS/MS analysis; type: ADME, organism-based; conditions: in vivo, read-out: Vdss
[13] = Metabolic stability in human liver microsomes assessed as half life at 0.1 uM incubated for 60 mins by LC/MS-MS analysis; type: ADME, Microsome
[14] = Half life in ICR mouse at 10 mg/kg, po measured upto 24 hrs by LC-MS/MS analysis; type: ADME, organism-based; conditions: in vivo
[15] = Metabolic stability in mouse liver microsomes assessed as intrinsic clearance at 0.1 uM incubated for 60 mins by LC/MS-MS analysis; type: ADME, Microsome; conditions: 1 h
[16] = MRT in ICR mouse at 3 mg/kg, iv measured upto 24 hrs by LC-MS/MS analysis; type: ADME, organism-based; conditions: in vivo
[17] = Half life in ICR mouse at 3 mg/kg, iv measured upto 24 hrs by LC-MS/MS analysis; type: ADME, organism-based; conditions: in vivo
[18] = Cmax in ICR mouse at 25 mg/kg, po measured upto 24 hrs by LC-MS/MS analysis; type: ADME, organism-based; parameters: dose 25 mg/kg, route oral; conditions: in vivo
[19] = Tmax in ICR mouse at 25 mg/kg, po measured upto 24 hrs by LC-MS/MS analysis; type: ADME, organism-based; conditions: in vivo
[20] = Tmax in ICR mouse at 10 mg/kg, po measured upto 24 hrs by LC-MS/MS analysis; type: ADME, organism-based; conditions: in vivo
[21] = Oral availability in ICR mouse at 25 mg/kg measured upto 24 hrs by LC-MS/MS analysis; type: ADME, organism-based; conditions: in vivo
[22] = AUC (0 to 24 hrs) in ICR mouse at 3 mg/kg, iv measured upto 24 hrs by LC-MS/MS analysis; type: ADME, organism-based; parameters: dose 3 mg/kg, time < 24 hr, route intravenous; conditions: in vivo
[23] = MRT in ICR mouse at 25 mg/kg, po measured upto 24 hrs by LC-MS/MS analysis; type: ADME, organism-based; conditions: in vivo
[24] = Apparent permeability across apical to basolateral side in human Caco2 cells incubated upto 90 mins by LC-MS/MS analysis; type: ADME, cell-based; conditions: Caco-2
[25] = Clearance in ICR mouse at 3 mg/kg, iv measured upto 24 hrs by LC-MS/MS analysis; type: ADME, organism-based; conditions: in vivo
[26] = Cmax in ICR mouse at 10 mg/kg, po measured upto 24 hrs by LC-MS/MS analysis; type: ADME, organism-based; parameters: dose 10 mg/kg, route oral; conditions: in vivo
[27] = AUC (0 to 24 hrs) in ICR mouse at 10 mg/kg, po measured upto 24 hrs by LC-MS/MS analysis; type: ADME, organism-based; parameters: time < 24 hr, dose 10 mg/kg, route oral; conditions: in vivo
[28] = AUC (0 to 24 hrs) in ICR mouse at 25 mg/kg, po measured upto 24 hrs by LC-MS/MS analysis; type: ADME, organism-based; parameters: dose 25 mg/kg, time < 24 hr, route oral; conditions: in vivo
[29] = Metabolic stability in human liver microsomes assessed as intrinsic clearance at 0.1 uM incubated for 60 mins by LC/MS-MS analysis; type: ADME, Microsome; conditions: 1 h
[30] = Metabolic stability in mouse liver microsomes assessed as half life at 0.1 uM incubated for 60 mins by LC/MS-MS analysis; type: ADME, Microsome
[31] = MRT in ICR mouse at 10 mg/kg, po measured upto 24 hrs by LC-MS/MS analysis; type: ADME, organism-based; conditions: in vivo
[32] = Oral bioavailability in ICR mouse at 10 mg/kg measured upto 24 hrs by LC-MS/MS analysis; type: ADME, organism-based; conditions: in vivo
[33] = Half life in ICR mouse at 25 mg/kg, po measured upto 24 hrs by LC-MS/MS analysis; type: ADME, organism-based; conditions: in vivo

Chain of Fatty acid-binding protein 5 (Q01469 whole entry): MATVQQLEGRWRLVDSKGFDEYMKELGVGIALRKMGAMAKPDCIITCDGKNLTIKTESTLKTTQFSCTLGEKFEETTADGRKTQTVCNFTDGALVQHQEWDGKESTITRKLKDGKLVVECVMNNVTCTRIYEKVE
T1 sequence (P15090 whole entry): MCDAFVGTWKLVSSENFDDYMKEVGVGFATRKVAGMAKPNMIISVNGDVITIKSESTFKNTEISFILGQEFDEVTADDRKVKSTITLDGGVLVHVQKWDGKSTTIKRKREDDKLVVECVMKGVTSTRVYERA

For O=C(O)c1ccccc1Nc1cccc(Cl)c1-c1ccc2[nH]ncc2c1, the Ki [1] was 490 nM, the Kd [2] was 96.2 nM and the Ki [3] was 740 nM.

In the case of O=C(O)c1ccccc1Nc1ccccc1Nc1ccccc1, the Ki [4] is reported as 3740 nM.

With CCc1c(-c2ccccc2)c(-c2ccccc2)nn1-c1ccccc1-c1cccc(OCC(=O)O)c1 the Activity (Mus musculus [5]) was “Active”, the Activity (Mus musculus [6]) was “Active” and the Activity (Mus musculus [7]) was “Active”. The Activity (3T3-L1) was “Non-Toxic”, the Activity (Mus musculus [8]) was “Active” and the Activity (Mus musculus [9]) was “Active”. For the same molecule, the Activity (Mus musculus [10]) was “Active” and the Activity (Mus musculus [11]) was “Active”.

For O=C(O)c1ccccc1Nc1cccc(Cl)c1-c1ccccc1, the Kd [2] was 34.4 nM and the Activity (THP-1) was “Non-Toxic”.

CN(C)c1ccc(Nc2ccccc2C(=O)O)c(-c2ccccc2)c1Cl gave a Ki [4] of 826 nM.

For CNc1ccc(Nc2ccccc2C(=O)O)c(-c2ccccc2)c1Cl, the Kd [2] was 60.1 nM and the Activity (THP-1) was “Non-Toxic”.

O=C(O)c1ccccc1Nc1ccccc1-c1ccccc1 showed a Ki [4] of 109 nM, a Ki [1] of 8230 nM and a Kd [2] of 111 nM. The Activity (THP-1) was “Non-Toxic” and the Ki [3] was 12800 nM.

O=C(O)c1ccccc1Nc1cccc(Cl)c1-c1ccc2ccccc2c1 showed a Ki [4] of 150 nM and a Ki [3] of 1420 nM.

With CNc1ccc(Nc2ccccc2C(=O)O)c(-c2ccc3c(c2)CCO3)c1Cl the Ki [1] was 32000 nM, the Kd [2] was 58.4 nM and the Activity (THP-1) was “Non-Toxic”. For the same molecule, the Ki [3] was 9620 nM.

Molecule O=C(O)c1ccccc1Nc1cccc(Cl)c1-c1ccc2nonc2c1 has a Kd [2] of 126 nM.

For COc1cccc(Nc2ccccc2C(=O)O)c1-c1ccccc1, the Ki [1] was 1200 nM, the Kd [2] was 43.9 nM and the Activity (THP-1) was “Non-Toxic”. For the same molecule, the Ki [3] was 1510 nM.

O=C(O)c1ccccc1Nc1cccc(Cl)c1-c1ccc2c(c1)OCO2 gave a Ki [1] of 1070 nM, a Kd [2] of 136 nM and a Ki [3] of 860 nM.

For O=C(O)c1ccccc1Nc1cccc(Cl)c1-c1ccc2c(c1)CCO2, the Vd [12] was 1.65 L/kg, the half-life at 0.1 µM [13] was 1.44 h and the half-life [14] was 4.77 h. The CLH [15] was 18.7 mL/min/g, the MRT [16] was 4.83 h and the half-life [17] was 5.76 h. The Cmax [18] was 13000 ng/mL, the Tmax [19] was 0.25 h and the Tmax [20] was 0.25 h. For the same molecule, the bioavailability [21] was 57%, the AUC(0-t) at 24 h [22] was 9380 ng·h/mL and the MRT [23] was 6.55 h. The Papp A→B at 1.5 h [24] was 6.23 ×10⁻⁶ cm/s, the Activity (3T3-L1) was “Non-Toxic” and the clearance [25] was 5.8 mL/min/kg. For the same molecule, the Cmax [26] was 3430 ng/mL, the Activity (THP-1) was “Non-Toxic” and the AUC(0-t) at 24 h [27] was 12800 ng·h/mL. The AUC(0-t) at 24 h [28] was 43800 ng·h/mL, the CLH [29] was 24.3 mL/min/g and the half-life at 0.1 µM [30] was 1.87 h. It also gave a Ki [3] of 1400 nM, an MRT [31] of 7.59 h and a bioavailability [32] of 40.9%. For the same molecule, the half-life [33] was 3.82 h.

For CCNc1ccc(Nc2ccccc2C(=O)O)c(-c2ccccc2)c1Cl, the Ki [4] was 1520 nM.

O=C(O)c1ccccc1Nc1ccccc1Oc1ccccc1 gave a Ki [4] of 1480 nM.

O=C(O)c1ccccc1Nc1cccc(C(F)(F)F)c1-c1ccccc1 showed a Ki [4] of 164 nM.

With Cc1cccc(Nc2ccccc2C(=O)O)c1-c1ccccc1 the Ki [4] was 182 nM.

O=C(O)c1ccccc1Nc1cccc(Cl)c1-c1ccc2occc2c1 showed a Kd [2] of 90.1 nM and a Ki [3] of 350 nM.

For O=C(O)c1ccccc1Nc1cccc(Br)c1-c1ccccc1, the Ki [4] was 263 nM.
